The molecules below were run against Protein artemis (Homo sapiens, UniProt Q96SD1) (assay: IC50 of Artemis nuclease activity blockers – biochemical, fluorescence intensity, dose response (AID 720701)).
Chain of Protein artemis (Q96SD1 whole entry): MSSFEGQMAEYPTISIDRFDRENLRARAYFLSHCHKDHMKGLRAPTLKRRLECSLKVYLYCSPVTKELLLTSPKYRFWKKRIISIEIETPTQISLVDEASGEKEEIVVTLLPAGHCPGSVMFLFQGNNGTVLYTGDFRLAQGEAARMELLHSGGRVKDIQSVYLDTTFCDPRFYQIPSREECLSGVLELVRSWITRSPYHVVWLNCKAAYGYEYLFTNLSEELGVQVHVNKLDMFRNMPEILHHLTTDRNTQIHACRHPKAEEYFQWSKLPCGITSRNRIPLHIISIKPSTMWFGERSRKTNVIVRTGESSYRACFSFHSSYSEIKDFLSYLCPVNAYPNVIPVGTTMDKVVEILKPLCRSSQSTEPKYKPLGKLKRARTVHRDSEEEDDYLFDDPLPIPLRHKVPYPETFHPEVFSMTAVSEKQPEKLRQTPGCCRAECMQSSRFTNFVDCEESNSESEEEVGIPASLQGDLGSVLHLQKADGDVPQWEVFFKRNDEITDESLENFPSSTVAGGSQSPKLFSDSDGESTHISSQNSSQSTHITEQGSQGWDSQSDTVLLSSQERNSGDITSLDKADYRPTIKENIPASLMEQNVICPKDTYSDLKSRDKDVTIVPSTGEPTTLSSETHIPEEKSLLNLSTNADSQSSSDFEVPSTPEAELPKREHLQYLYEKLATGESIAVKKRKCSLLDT

| SMILES | IC50 |
| --- | --- |
| CCCCc1ccc(/C=C2\C(=O)ON=C2c2ccccc2)s1 [4-(5-Butyl-thiophen-2-ylmethylene)-3-phenyl-4H-isoxazol-5-one] | 16.2 µM |
| Cc1cccc(CN2C(=O)N/C(=C/c3ccc(C)s3)C2=O)c1 | 16.4 µM |
| COc1ccc(O)c(CN=Nc2nc(Nc3ccccc3)nc(-n3nc(C)cc3C)n2)c1 [(6E)-6-[[2-[4-(3,5-dimethylpyrazol-1-yl)-6-phenylazanyl-1,3,5-triazin-2-yl]hydrazinyl]methylidene]-4-methoxy-cyclohexa-2,4-dien-1-one] | 2.23 µM |
| N#CC(C(=O)NCc1ccccc1)c1nc2ccccc2nc1N1CCCC1 (stereo unspecified) [2-cyano-N-(phenylmethyl)-2-(3-pyrrolidin-1-ylquinoxalin-2-yl)ethanamide] | 5 µM |
| CC(N=O)c1ccccc1C(=O)O (stereo unspecified) [SMR000038583] | 3.62 µM |
| C=CCN1C(=O)S/C(=C\c2ccc(N3CCOCC3)cc2C)C1=O [(5Z)-5-[[2-methyl-4-(4-morpholinyl)phenyl]methylidene]-3-prop-2-enylthiazolidine-2,4-dione] | 1.5 µM |
| NS(=O)(=O)c1ccc2c(c1)C1C=CCC1C(C1CC=CCC1)N2 (stereo unspecified) [MLS000530517] | 9.58 µM |
| CCOc1ccc(-n2c(O)c(C=Nc3ccc(N4CCOCC4)cc3)c(=O)[nH]c2=O)cc1 [SMR000109118] | > 20 µM |
| CCCCCCCCCC(N=O)c1ccccn1 (stereo unspecified) [1-Pyridin-2-yl-decan-1-one oxime] | 11 µM |
| CN1c2cccc3cccc(c23)C1N=O (stereo unspecified) [1-Methyl-1H-benzo[cd]indol-2-one oxime] | > 20 µM |
| O=C1C=Cc2ccccc2/C1=C/NC12CN3CCN(CN(C3)C1)C2 [MLS000071484] | 3.64 µM |
| N#CC1C(=N)Oc2[nH]nc(-c3cccs3)c2C1c1ccoc1 (stereo unspecified) [6-amino-4-(furan-3-yl)-3-thiophen-2-yl-2,4-dihydropyrano[2,3-c]pyrazole-5-carbonitrile] | > 20 µM |
| O=c1c2ccccc2nc(N=NCc2c(O)ccc3ccccc23)n1O [SMR000145705] | 4.68 µM |
| CCCCOc1ccc(/C=C2/Sc3ccccc3C2=O)cc1 [2-(4-Butoxy-benzylidene)-benzo[b]thiophen-3-one] | > 20 µM |
| COc1ccc(Nc2nc(N=NCc3ccccc3)nc(NCc3ccco3)n2)cc1 | 2.65 µM |
| CCN(CC)c1ccc(CN=Nc2nc3ccccc3[nH]2)c(O)c1 [MLS000541069] | 15.5 µM |

Reference: BindingDB's records for doi:10.7270/Q2MC8XP5 (Burnham Center For Chemical Genomics, 2013)
